In one test the test system is Mature ewe PMNs. Kind of test: NET formation by sheep PMNs. It is filed as cell-based. An excerpt:
Referring to FIGS. 13A and 13B, PMNs from preterm lamb cord blood and from mature ewes were isolated.

For a further test, the system named is human platelets. Put plainly: Platelet activation (P-selectin expression). Format: cell-based. The following applies: given alone or following thrombin stimulation (0.1 IU/mL). Here is the method: Using protocols modified from van Velzen, et al., Thromb Res, 2012, 130: 92-98, human platelets (1×10^8 cells/mL) were incubated with CRISPP or SCR (0.1-10 ng/ml) for 1 hour followed by stimulation with thrombin (0.1 IU/mL) or control M-199 media for 15 minutes. The cells were prepared for FACS analysis with the following primary, monoclonal antibodies for 20 minutes: PE-conjugated CD41a (platelet-specific marker) and FITC-conjugated CD62P (P-selectin). Isotype and fluorochrome matched control antibodies were used. After incubation at room temperature in the dark, the cells were lysed with FACS lysis buffer and analyzed by flow cytometry (BECTON-DICKINSON FACSCAN, CELLQUEST software).

On to “Cancer-Associated SCM-Recognition, Immune Defense Suppression, and Serine Protease Protection Peptide [CRISPP, nNIF-related peptide (nNRP)]”, for which the “NET formation by LPS-stimulated sheep PMNs” value in the test with Mature ewe PMNs (mature ewe PMNs, pre-treatment 1 hour, LPS 100 ng/mL) was “inhibited NET formation in a dose-dependent manner”. Besides, the “NET formation by PMA-stimulated sheep PMNs” value in the test on Mature ewe PMNs (sheep PMNs, PMA) is on record as “inhibited NET formation”. Further, the Platelet p-selectin expression entry in the test with human platelets is “did not alter”.

The record behind these values is patent US10232023B2, “Methods for treatment of and prophylaxis against inflammatory disorders” (THE UNIVERSITY OF UTAH RESEARCH FOUNDATION, priority 2013, dated 2019).
